For one data set, the system named is HCT116 (human, colon). Kind of data set: MTT cytotoxicity HCT116. The format is cell-based. The following applies: HCT-116, 72 h, n = 3. How it is done:
(§1) All cell types were cultivated at 37 °C with 5% CO2. HepG2, HEK293, HCT116, CHO-K1, HeLa-CCL-2 and Huh-7.5 were purchased from ATCC. The respective cell media (Gibco) were supplemented with 10% FBS (Gibco) before usage. Cells were used between passages #5 and #30. To obtain biological repeats, cells were split separately for at least two passages.
(§2) Cells were washed with PBS and 0.5 mL trypsin was added. Afterwards, cells were incubated for 5 min before adding 10 mL medium containing 10% FBS. Per well, 120 µL cell suspension (5 × 10^4 cells/mL) was seeded in transparent 96-well cell bind plates and incubated for 2 h (37 °C, 5% CO2). A dilution series (1:3) of test compounds was prepared in respective media containing 10% FBS and added (60 µL) to the prepared cell plate. Cells were incubated for a further 72 h (37 °C, 5% CO2). Next, 20 µL MTT (5 mg/mL in PBS) was added to each well and incubated for 2 h (37 °C, 5% CO2). The wells were emptied and 100 µL isopropanol/10 N HCl (1000:4) per well was added.
(§3) The plates were analyzed by measuring the absorbance at 570 nm (plate reader Infinite® 200 Pro, Tecan). After normalization of data to the respective solvent controls, the calculated percentage of growth inhibition was plotted using GraphPad Prism software (version 10.0.2).

For a further data set, the system named is Huh-7.5 (human, liver). Kind of data set: MTT cytotoxicity Huh-7.5. The following applies: Huh7.5, 72 h, n = 3. The format is cell-based. How it is done:
as §1, §2, §3

The test system of the next data set is U-2 OS cells. Briefly: Mitochondrial superoxide formation (MitoSOX Red). The format is cell-based, human. The following applies: n = 6. How it is done: CYS was tested for its potential to induce oxidative stress in U-2 OS cells. Therefore, 120 µL of a cell suspension in McCoy’s (+10% FBS) containing 5 × 10^4 cells/mL were seeded into black 96-well imaging plate (BD Falcon). The plates were incubated for two days (37 °C, 5% CO2) until the cells reached approximately 70% confluence. Subsequently, the cells were washed with HBSS buffer, prior to adding CYS (20 µM) and the ROS inducer menadione (50 µM) as positive control, along with the staining solution (HBSS, calcium, magnesium, 5 µM MitoSOX red and 10 µg/mL Hoechst (Thermo)). To check for ROS protective properties, menadione (50 µM) was added directly to the staining solution. […] Afterwards, the cells were washed twice with HBSS. The cells were imaged using an automated fluorescence microscope (Celldiscoverer 7, Zeiss) (excitation: […]) to analyze the fluorescence intensity of the superoxide tracker MitoSOX red. The experiment was carried out with six replicates per condition. Quantification was done by high-content image analysis using the ZEN software (version 3.4, blue edition, Zeiss). Data presentation was done using GraphPad Prism (version 10.0.3) with ordinary one-way ANOVA including multiple comparisons to the control group for statistical analysis of the sample without ROS induction via menadione in the staining solution. Multiple unpaired t test was used to compare samples for ROS protective properties, which were incubated with menadione in the staining solution.

Data set [1] is described as follows: Metabolic stability in mouse hepatocytes. The format is in vitro ADME. The following applies: mouse, pooled mouse hepatocytes; 1 μM, 0.25 × 10^6 cells/mL; read-out: Mouse Hepatocytes t1/2. How it is done:
For the evaluation of combined phase I and phase II metabolic stability, the compound (1 μM) was incubated with 0.25 × 10^6 cells/mL of pooled mouse hepatocytes (Xenotech, Kansas City, USA). Cells were thawed in Leibovitz’s L-15 medium without phenol red (ThermoFisher Scientific, Waltham, USA). Briefly, cells were transferred into 50 mL of medium, followed by centrifugation at 55 g for 6 min. Supernatant was discarded, and the cell count was determined after gently resuspending the cell pellet in 1mL of medium. Hepatocytes were diluted to 0.5 × 10^6 cells/mL and incubated at 37 °C, 700 rpm for 10 min, to achieve the desired final cell count after addition of an equal volume of test compounds in medium, leading to a final test concentration of 1 µM at 1% DMSO. […] For the determination of metabolism in the presence of cobicistat, this drug was added together with test compounds in the desired concentration range. The metabolic stability of testosterone, verapamil, ketoconazole and 7-hydroxycoumarine were determined in parallel to confirm the enzymatic activity of mouse hepatocytes. […] Concentration of the remaining test compound at the different time points was analyzed by HPLC-MS/MS (Vanquish Flex coupled to a TSQ Altis Plus, Thermo Fisher, Dreieich, Germany) and used to determine half-life (t1/2). Intrinsic clearance was calculated as follows:2 CLintµL/min×10^6cells=Incubation volumeµL×ln(2)/Cells in incubation mixture[10^6]×t1/2
For metabolite identification studies, test compounds were incubated at 10 µM final concentration and samples were analyzed using HPLC-HRMS (Ultimate 3000 coupled to a Q Exactive Focus, Thermo Fisher, Dreieich, Germany). […] Blank samples using DMSO were run in parallel for background subtraction. Sample processing for metabolite identification was performed using Compound Discoverer 3.2 (Thermo Fisher, Dreieich, Germany). Metabolites were identified based on mass shifts and feasibility of the metabolic reaction, also in view of MS peak intensities over time.

The next data set has as its system E. coli gyrase. The following applies: cited from earlier work.
In another data set the test system is HepG2 (human, liver). Briefly: MTT cytotoxicity HepG2. The format is cell-based. The following applies: 72 h, n = 3. How it is done:
as §1, §2, §3

For the next data set, the system named is HEK293 (human, kidney). Kind of data set: MTT cytotoxicity HEK293. It counts as cell-based. How it is done: as §1, §2, §3
A further data set deals with CHO-K1 (hamster, ovary). Kind of data set: MTT cytotoxicity CHO-K1. The format is cell-based. The following applies: CHO-K1, 72 h, n = 3. How it is done: as §1, §2, §3
The subject of data set [2] is U2OS (human, osteosarcoma). Kind of data set: MTT cytotoxicity U2OS. It counts as cell-based. The following applies: 72 h, n = 3. How it is done:
as §2, §3

The subject of the next data set is HeLa (human, cervix). Kind of data set: MTT cytotoxicity HeLa. The format is cell-based. The following applies: 72 h, n = 3. How it is done: as §1, §2, §3
The test system of data set [3] is CHO-K1 cells.
Source text: (§12) Subsequently, cells were washed three times with PBS and imaged using Celldiscoverer 7 (Zeiss).
The subject of data set [4] is zebrafish embryos [Tg(fabp10a:DsRed; elaA:EGFP)]. Kind of data set: In vivo hepatotoxicity in zebrafish embryos. The following applies: soaking 3 to 5 dpf; valproic acid 20, 40 µg/mL. How it is done: (§4) Handling of adult zebrafish and experiments with zebrafish embryos were performed in accordance with the EU directive 2010/63/EU and the German Animal Welfare Act (§11 Abs. 1 TierSchG). An automatic aquatic eco-system (PENTAIR, Apoka, UK) was used for zebrafish housing. Adult zebrafish were mated pairwise in our zebrafish facility after one night in the mating cages (light/dark cycle: 14 h/10 h). The eggs were collected after 2 h of mating and placed in a petri dish with fish water (pH 7.36 ± 0.08, conductivity: 800 ± 50 µs). The eggs were washed with 0.3x Danieau´s medium (17 mM NaCl, 0.2 mM KCl, 0.12 mM MgSO4, 0.18 mM Ca(NO3)2, 1.5 mM HEPES, pH 7.1–7.3, and 1.2 µM methylene blue). 300 eggs were placed per Petri dish and stored in the incubator at 28 °C overnight. […]
Zebrafish embryos [Tg(fabp10a:DsRed; elaA:EGFP)] were prepared as described above. […] After 48 h treatment, the embryos were checked via a fluorescence stereomicroscope (M205 FA, Leica) with attention to liver degeneration. Fluorescence images were taken after anesthetizing the embryos with tricaine (40 µg/mL) and placing them laterally (excitation: 558 nm, emission 583 nm, 35× magnification). […] The liver size was calculated using ImageJ software (format: 8 bit, threshold: 40–255, binary, particle size: 10.0-infinite). […] The relative liver sizes of treated embryos were calculated accordingly and normalized to the control group. […]

The test system of data set [5] is CHO-K1 cells. Kind of data set: Micronucleus test. The following applies: 24 h; mitomycin C 0.05 µM, doxorubicin 0.05 µM, etoposide 0.25 µM; CYS 20 µM, 100 µM for Cysto-180.
Source text: as §12
Another data set relates to zebrafish embryos. Briefly: In vivo cardiotoxicity in zebrafish embryos. The following applies: treated 2 to 3 dpf; CYS 20 µM; terfenadine 10, 20 µM. How it is done: as §4, with “overnight. 24 h post-mating, the unfertilized eggs were discarded. The 0.3x Danieau´s media in the petri dishes was replaced every 24 h and embryos with developmental issues were euthanized using ice water.” for “overnight.”
Embryos were prepared as described above. […] Afterwards, embryos were anesthetized with tricaine added to the media (40 µg/mL, 0.004% (w/v)) and videos were recorded using a stereomicroscope (1.25 × magnification) (Stemi 508, Zeiss) with Media Recorder (version 4.0) and analyzed via DanioScope software (version 1.2.208, Noldus). […]

Read-outs that look alike come from different tables or passages of the source.

By IC50 is commonly meant the concentration at which inhibition is half-maximal.

As for `CC(C)Oc1c(NC(=O)c2ccc(NC(=O)[C@H](CC(N)=O)NC(=O)c3ccc(NC(=O)c4ccc(C#N)cc4)cc3)cc2)ccc(C(=O)Nc2ccc(C(=O)O)cc2)c1O` [CN-DM-861], the IC50 in the data set with HCT116 (human, colon) was > 20000 nM; with Huh-7.5 (human, liver) it was > 20000 nM; in the data set on E. coli gyrase, […]; with HepG2 (human, liver), > 20000 nM; in the data set with HEK293 (human, kidney) (HEK293, 72 h, read-out: IC50 HEK293 (human, kidney)), > 20000 nM; with CHO-K1 (hamster, ovary) it was > 20000 nM. The IC50 in data set [2] is > 20000 nM; with HeLa (human, cervix) it was > 37000 nM. For the same compound, in the data set on U-2 OS cells (20 µM, MitoSOX Red, no menadione), the “basal superoxide radical levels vs DMSO control” value is recorded as “no ROS induction at the maximum soluble concentration”. Besides, the “menadione-induced superoxide formation on co-treatment” value in the data set with U-2 OS cells (CYS 20 µM + menadione 50 µM) is listed as “no significant increase of superoxide”. In addition, the half-life at 1 µM in data set [1] was 1.57 ± 0.25 h.

As to `COc1cccc2c1C(=O)c1c(O)c3c(c(O)c1C2=O)C[C@@](O)(C(=O)CO)C[C@@H]3O[C@H]1C[C@H](N)[C@H](O)[C@H](C)O1` [Doxorubicin, doxorubicin, reference compound], the IC50 in the data set on HCT116 (human, colon) turned out to be 240 ± 20 nM; in the data set with HepG2 (human, liver) it was 480 ± 130 nM; in the data set on HEK293 (human, kidney) (HEK293, MTT, 72 h, n = 3, read-out: IC50 HEK293 (human, kidney)), 160 ± 40 nM; with CHO-K1 (hamster, ovary), 100 ± 10 nM. For the same compound, in the data set with CHO-K1 cells [3], the micronuclei/nuclear bud formation result is given as “high amount of nuclear bud/micronuclei formation”.

Take `CCCC(CCC)C(=O)O` [Valproic acid, valproic acid]: in [4], the liver size entry is “significant liver size reduction”.

For the compound `CO[C@@]12[C@H](COC(N)=O)C3=C(C(=O)C(C)=C(N)C3=O)N1C[C@@H]1N[C@@H]12` [mitomycin C], the micronuclei/nuclear bud formation entry in the data set on CHO-K1 cells [5] was “high amount of nuclear bud/micronuclei formation”.

In the case of `CC(C)(C)c1ccc(C(O)CCCN2CCC(C(O)(c3ccccc3)c3ccccc3)CC2)cc1` (centres unmarked) [terfenadine], in the data set on zebrafish embryos, the heartbeat rate entry is “significant and concentration-dependent decrease of beats per minute”; the pericardial area entry is “significant, concentration-dependent increase in pericardial area”.

The record behind these values is PMC13267113 (npj Drug Discovery, 2025).
